Tested on: 361931-004-R-J1-PDC multicell spheroid viability
Experiment: Anticancer human tumor 361931-004-R-J1-PDC patient-derived colon adenocarcinoma cell line growth inhibition [PI3K]
Conditions: for IC50: curve of first compound; for viability, T/C: stronger effect = lower value
Summary of the method: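 Three cell types, namely tumor cells, endothelial cells and mesenchymal stem cells, formed each spheroid. Combinations with four PI3K inhibitors were screened at clinically achievable concentrations decreasing by half-log, and spheroid viability was recorded.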

[1] = second compound 0.0316 µM, first compound 0.0316 µM
[2] = second compound 0.0316 µM, first compound 0.1 µM
[3] = second compound 0.0316 µM, first compound 0.316 µM
[4] = second compound 0.0316 µM, first compound 1 µM
[5] = second compound 0.1 µM, first compound 0.0316 µM
[6] = second compound 0.1 µM, first compound 0.1 µM
[7] = second compound 0.1 µM, first compound 0.316 µM
[8] = second compound 0.1 µM, first compound 1 µM
[9] = second compound 0.316 µM, first compound 0.0316 µM
[10] = second compound 0.316 µM, first compound 0.1 µM
[11] = second compound 0.316 µM, first compound 0.316 µM
[12] = second compound 0.316 µM, first compound 1 µM
[13] = second compound 1 µM, first compound 0.0316 µM
[14] = second compound 1 µM, first compound 0.1 µM
[15] = second compound 1 µM, first compound 0.316 µM
[16] = second compound 1 µM, first compound 1 µM
[17] = second compound 3.16 µM, first compound 0.0316 µM
[18] = second compound 3.16 µM, first compound 0.1 µM
[19] = second compound 3.16 µM, first compound 0.316 µM
[20] = second compound 3.16 µM, first compound 1 µM
[21] = second compound 10 µM, first compound 0.0316 µM
[22] = second compound 10 µM, first compound 0.1 µM
[23] = second compound 10 µM, first compound 0.316 µM
[24] = second compound 10 µM, first compound 1 µM
[25] = second compound 0.0316 µM, first compound 0.00316 µM
[26] = second compound 0.0316 µM, first compound 0.01 µM
[27] = second compound 0.1 µM, first compound 0.00316 µM
[28] = second compound 0.1 µM, first compound 0.01 µM
[29] = second compound 0.316 µM, first compound 0.00316 µM
[30] = second compound 0.316 µM, first compound 0.01 µM
[31] = second compound 1 µM, first compound 0.00316 µM
[32] = second compound 1 µM, first compound 0.01 µM
[33] = second compound 3.16 µM, first compound 0.00316 µM
[34] = second compound 3.16 µM, first compound 0.01 µM
[35] = second compound 10 µM, first compound 0.00316 µM
[36] = second compound 10 µM, first compound 0.01 µM
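Further: spheroids exposed to agents for seven days before readout.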

For `C[C@@H](NC(=O)c1ncnc(N)c1Cl)c1ncc(C(=O)Nc2cc(C(F)(F)F)c(Cl)cn2)s1` + CC(Nc1ncnc2nc[nH]c12)c1cc2cccc(Cl)c2c(=O)n1-c1ccccc1, the IC50 (second compound 0.0316 µM) was > 10000 nM, the IC50 (second compound 0.1 µM) was > 10000 nM and the IC50 (second compound 0.316 µM) was > 10000 nM. For the same molecule, the IC50 (second compound 1 µM) was > 10000 nM, the IC50 (second compound 3.16 µM) was > 10000 nM and the IC50 (second compound 10 µM) was > 10000 nM. The viability, T/C [1] was 105%, the viability, T/C [2] was 102% and the viability, T/C [3] was 99.2%. The viability, T/C [4] was 94.1%, the viability, T/C (second compound 0.0316 µM, first compound 3.16 µM) was 104% and the viability, T/C (second compound 0.0316 µM, first compound 10 µM) was 98%. For the same molecule, the viability, T/C [5] was 101%, the viability, T/C [6] was 101% and the viability, T/C [7] was 96%. It also gave a viability, T/C [8] of 95.3%, a viability, T/C (second compound 0.1 µM, first compound 3.16 µM) of 104% and a viability, T/C (second compound 0.1 µM, first compound 10 µM) of 94.6%. For the same molecule, the viability, T/C [9] was 105%, the viability, T/C [10] was 103% and the viability, T/C [11] was 107%. For the same molecule, the viability, T/C [12] was 104%, the viability, T/C (second compound 0.316 µM, first compound 3.16 µM) was 106% and the viability, T/C (second compound 0.316 µM, first compound 10 µM) was 93.7%. For the same molecule, the viability, T/C [13] was 98.8%, the viability, T/C [14] was 99.9% and the viability, T/C [15] was 107%. It also gave a viability, T/C [16] of 103%, a viability, T/C (second compound 1 µM, first compound 3.16 µM) of 106% and a viability, T/C (second compound 1 µM, first compound 10 µM) of 91.7%. For the same molecule, the viability, T/C [17] was 88.6%, the viability, T/C [18] was 110% and the viability, T/C [19] was 107%. The viability, T/C [20] was 99.5%, the viability, T/C (second compound 3.16 µM, first compound 3.16 µM) was 107% and the viability, T/C (second compound 3.16 µM, first compound 10 µM) was 101%. For the same molecule, the viability, T/C [21] was 101%, the viability, T/C [22] was 96.7% and the viability, T/C [23] was 107%. It also gave a viability, T/C [24] of 107%, a viability, T/C (second compound 10 µM, first compound 3.16 µM) of 104% and a viability, T/C (second compound 10 µM, first compound 10 µM) of 87.7%.

In the case of `Cn1ncnc1[C@H]1c2n[nH]c(=O)c3cc(F)cc(c23)N[C@@H]1c1ccc(F)cc1` + CC(Nc1ncnc2nc[nH]c12)c1cc2cccc(Cl)c2c(=O)n1-c1ccccc1, the IC50 (second compound 0.0316 µM) is reported as > 100 nM, the IC50 (second compound 0.1 µM) is reported as > 100 nM and the IC50 (second compound 0.316 µM) is reported as > 100 nM. The IC50 (second compound 1 µM) was > 100 nM, the IC50 (second compound 3.16 µM) was > 100 nM and the IC50 (second compound 10 µM) was > 100 nM. For the same molecule, the viability, T/C (second compound 0.0316 µM, first compound 0.000316 µM) was 97.9%, the viability, T/C (second compound 0.0316 µM, first compound 0.001 µM) was 106% and the viability, T/C [25] was 102%. The viability, T/C [26] was 99.1%, the viability, T/C [1] was 107% and the viability, T/C [2] was 106%. The viability, T/C (second compound 0.1 µM, first compound 0.000316 µM) was 110%, the viability, T/C (second compound 0.1 µM, first compound 0.001 µM) was 104% and the viability, T/C [27] was 109%. For the same molecule, the viability, T/C [28] was 103%, the viability, T/C [5] was 101% and the viability, T/C [6] was 108%. For the same molecule, the viability, T/C (second compound 0.316 µM, first compound 0.000316 µM) was 107%, the viability, T/C (second compound 0.316 µM, first compound 0.001 µM) was 108% and the viability, T/C [29] was 103%. The viability, T/C [30] was 97%, the viability, T/C [9] was 105% and the viability, T/C [10] was 100%. The viability, T/C (second compound 1 µM, first compound 0.000316 µM) was 99.5%, the viability, T/C (second compound 1 µM, first compound 0.001 µM) was 99% and the viability, T/C [31] was 102%. For the same molecule, the viability, T/C [32] was 95.2%, the viability, T/C [13] was 97.8% and the viability, T/C [14] was 95.2%. It also gave a viability, T/C (second compound 3.16 µM, first compound 0.000316 µM) of 102%, a viability, T/C (second compound 3.16 µM, first compound 0.001 µM) of 111% and a viability, T/C [33] of 107%. The viability, T/C [34] was 101%, the viability, T/C [17] was 102% and the viability, T/C [18] was 102%. For the same molecule, the viability, T/C (second compound 10 µM, first compound 0.000316 µM) was 102%, the viability, T/C (second compound 10 µM, first compound 0.001 µM) was 113% and the viability, T/C [35] was 102%. For the same molecule, the viability, T/C [36] was 100%, the viability, T/C [21] was 102% and the viability, T/C [22] was 98.5%.

For `CCN1CCN(Cc2ccc(Nc3ncc(F)c(-c4cc(F)c5nc(C)n(C(C)C)c5c4)n3)nc2)CC1` + CC(Nc1ncnc2nc[nH]c12)c1cc2cccc(Cl)c2c(=O)n1-c1ccccc1, the IC50 (second compound 0.0316 µM) was > 1000 nM, the IC50 (second compound 0.1 µM) was > 1000 nM and the IC50 (second compound 0.316 µM) was > 1000 nM. The IC50 (second compound 1 µM) was > 1000 nM, the IC50 (second compound 3.16 µM) was > 1000 nM and the IC50 (second compound 10 µM) was > 1000 nM. For the same molecule, the viability, T/C [25] was 106%, the viability, T/C [26] was 103% and the viability, T/C [1] was 103%. For the same molecule, the viability, T/C [2] was 98.8%, the viability, T/C [3] was 109% and the viability, T/C [4] was 105%. For the same molecule, the viability, T/C [27] was 105%, the viability, T/C [28] was 105% and the viability, T/C [5] was 103%. For the same molecule, the viability, T/C [6] was 97.6%, the viability, T/C [7] was 109% and the viability, T/C [8] was 100%. For the same molecule, the viability, T/C [29] was 101%, the viability, T/C [30] was 112% and the viability, T/C [9] was 102%. The viability, T/C [10] was 110%, the viability, T/C [11] was 106% and the viability, T/C [12] was 91.9%. It also gave a viability, T/C [31] of 105%, a viability, T/C [32] of 101% and a viability, T/C [13] of 102%. It also gave a viability, T/C [14] of 104%, a viability, T/C [15] of 108% and a viability, T/C [16] of 93%. The viability, T/C [33] was 109%, the viability, T/C [34] was 107% and the viability, T/C [17] was 101%. The viability, T/C [18] was 104%, the viability, T/C [19] was 100% and the viability, T/C [20] was 81.8%. The viability, T/C [35] was 105%, the viability, T/C [36] was 102% and the viability, T/C [21] was 106%. The viability, T/C [22] was 96.5%, the viability, T/C [23] was 89.5% and the viability, T/C [24] was 69%.

From PubChem BioAssay AID1963979 (Molecular Pharmacology Branch, DTP, NCI, 2024)
